# Source: ChEMBL document CHEMBL1127166, “The analgesic effect of epibatidine and isomers” (1993)
# Legend:
# Type in all cases: functional
# Mus musculus [1] = experiment: Tested for the maximum possible analgesic effect along with naloxone (10 mg/kg) after 15 min at subcutaneous dosage of 10000 ug/kg
# Mus musculus [2] = experiment: Tested for the maximum possible analgesic effect along with naloxone (10 mg/kg) after 30 min at subcutaneous dosage of 10000 ug/kg
# Mus musculus [3] = experiment: Tested for the maximum possible analgesic effect along with naloxone (10 mg/kg) after 5 min at subcutaneous dosage of 10000 ug/kg
# Mus musculus [4] = experiment: Tested for the maximum possible analgesic effect along with saline after 15 min at subcutaneous dosage of 10000 ug/kg
# Mus musculus [5] = experiment: Tested for the maximum possible analgesic effect along with saline after 30 min at subcutaneous dosage of 1000-10000 ug/kg
# Mus musculus [6] = experiment: Tested for the maximum possible analgesic effect along with saline after 30 min at subcutaneous dosage of 10000 ug/kg
# Mus musculus [7] = experiment: Tested for the maximum possible analgesic effect along with saline after 5 min at subcutaneous dosage of 10000 ug/kg
# Mus musculus [8] = experiment: Tested for the analgesic effect in the mouse tail-flick assay at 5 min after subcutaneous injection at dosage of 10-50 ug/kg; details: sc
# Mus musculus [9] = experiment: Tested for the maximum possible analgesic effect of epibatidine after 15 min in mouse tail-flick assay at subcutaneous dosage of 10 ug/kg
# Mus musculus [10] = experiment: Tested for the maximum possible analgesic effect of epibatidine after 30 min in mouse tail-flick assay at subcutaneous dosage of 10 ug/kg
# Mus musculus [11] = experiment: Tested for the maximum possible analgesic effect of epibatidine after 5 min in mouse tail-flick assay at subcutaneous dosage of 10 ug/kg
# Mus musculus [12] = experiment: Tested for the analgesic effect in the mouse tail-flick assay at 5 min after subcutaneous injection at dosage of 1000 ug/kg; details: sc
# Mus musculus [13] = experiment: Tested for the maximum possible analgesic effect of epibatidine after 30 min in mouse tail-flick assay at subcutaneous dosage of 1000 ug/kg
# Mus musculus [14] = experiment: Tested for the maximum possible analgesic effect of epibatidine after 5 min in mouse tail-flick assay at subcutaneous dosage of 1000 ug/kg
# Mus musculus [15] = experiment: Tested for the maximum possible analgesic effect of epibatidine at 15 min in mouse tail-flick assay after subcutaneous dosage of 1000 ug/kg
# Mus musculus [16] = experiment: Tested for the analgesic effect in the mouse tail-flick assay at 5 min after subcutaneous injection at dosage of 5-50 ug/kg
# Mus musculus [17] = experiment: Tested for the maximum possible analgesic effect along with naloxone (10 mg/kg) after 15 min at subcutaneous dosage of 10 ug/kg
# Mus musculus [18] = experiment: Tested for the maximum possible analgesic effect along with naloxone (10 mg/kg) after 30 min at subcutaneous dosage of 10 ug/kg
# Mus musculus [19] = experiment: Tested for the maximum possible analgesic effect along with saline after 15 min at subcutaneous dosage of 10 ug/kg
# Mus musculus [20] = experiment: Tested for the maximum possible analgesic effect along with saline after 30 min at subcutaneous dosage of 10 ug/kg
# Mus musculus [21] = experiment: Tested for the maximum possible analgesic effect along with saline after 5 min at subcutaneous dosage of 10 ug/kg
# Mus musculus [22] = experiment: Tested for the maximum possible analgesic effect along with naloxone (10 mg/kg) after 5 min at subcutaneous dosage of 10 ug/kg
# Mus musculus [23] = experiment: Tested for maximum possible of analgesic effect of epibatidine after 5 min in mouse tail-flick assay at subcutaneous dosage of 10 ug/kg
# Mus musculus [24] = experiment: Tested for the analgesic effect in the mouse tail-flick assay at 5 min after subcutaneous injection at dosage of 50-1000 ug/kg; details: sc
# Mus musculus [25] = experiment: Tested for the maximum possible analgesic effect of epibatidine after 15 min in mouse tail-flick assay at subcutaneous dosage of 1000 ug/kg
compound,measurement,setting,value
CN1CC[C@]23c4c5ccc(O)c4O[C@H]2[C@@H](O)C=C[C@H]3[C@H]1C5.CN1CC[C@]23c4c5ccc(O)c4O[C@H]2[C@@H](O)C=C[C@H]3[C@H]1C5.O=S(=O)(O)O,Max possible effect,Mus musculus [1],3%
same,Max possible effect,Mus musculus [2],4%
same,Max possible effect,Mus musculus [3],0%
same,Max possible effect,Mus musculus [4],51%
same,Max possible effect,Mus musculus [5],4524%
same,Max possible effect,Mus musculus [6],94%
same,Max possible effect,Mus musculus [7],7%
CN1C2CCC1C(c1ccc(Cl)nc1)C2 (configuration not stated),ED50,Mus musculus [8],9 µg/kg
same,Max possible effect,Mus musculus [9],16%
same,Max possible effect,Mus musculus [10],8%
same,Max possible effect,Mus musculus [11],64%
CC(=O)N1C2CCC1C(c1ccc(Cl)nc1)C2 (configuration not stated),ED50,Mus musculus [12],> 1000 µg/kg
same,Max possible effect,Mus musculus [13],0%
same,Max possible effect,Mus musculus [14],4%
same,Max possible effect,Mus musculus [15],3%
Clc1ccc(C2CC3CCC2N3)cn1 (racemic) [EPIBATIDINE],ED50,Mus musculus [16],10 µg/kg
same,Max possible effect,Mus musculus [9],23%
same,Max possible effect,Mus musculus [10],5%
same,Max possible effect,Mus musculus [11],47%
Clc1ccc(C2CC3CCC2N3)cn1 (stereo in doubt; d-1) [EPIBATIDINE],ED50,"Mus musculus [16]; Mus musculus, Tail, sc, 5 min, read-out: ED50",7 µg/kg
same,Max possible effect,Mus musculus [17],49%
same,Max possible effect,Mus musculus [18],0%
same,Max possible effect,Mus musculus [19],48%
same,Max possible effect,Mus musculus [20],4%
same,Max possible effect,Mus musculus [21],86%
same,Max possible effect,Mus musculus [9],32%
same,Max possible effect,Mus musculus [10],3%
same,Max possible effect,Mus musculus [11],89%
same,Max possible effect,Mus musculus [22],77%
Clc1ccc(C2CC3CCC2N3)cn1 (stereo in doubt; l-1) [EPIBATIDINE],ED50,Mus musculus [16],9 µg/kg
same,Max possible effect,Mus musculus [23],58%
same,Max possible effect,Mus musculus [9],46%
same,Max possible effect,Mus musculus [10],1%
Clc1ccc(C2CC3CCC2N3)cn1 (configuration not stated) [EPIBATIDINE],ED50,Mus musculus [24],> 1000 µg/kg
same,Max possible effect,Mus musculus [25],10%
same,Max possible effect,Mus musculus [13],11%
same,Max possible effect,Mus musculus [14],5%
